Laboratory results published in US5565424A, “Superactive VIP antagonists” (Ramot - University Authority for Applied Research and …, priority 1994, dated 1996).
Non-standard residues stand in square brackets, D forms with d. Residues, ends and D or L forms follow the SMILES beside them. Nle = CCCC[C@H](N)C(=O)O

Key:
[1] = test system: dissociated mouse spinal cord cultures (neurons); test: Neuronal survival in dissociated spinal cord cultures; type: cell-based
[2] = test system: VIP-stimulated cAMP formation in astrocytes; test: VIP-stimulated cAMP formation in cortical astrocyte cultures; type: cell-based, rat; conditions: 1 μM VIP, FIG. 2
Description: FIG. 2. VIP-stimulated cAMP formation was inhibited in the presence of the family of VIP antagonists. Cortical astrocyte cultures were incubated for 10 min with 1 μm VIP and cAMP accumulation was determined by radioimmunoassay (Gozes, et al., J. Pharmacol. & Exp. Therap., 257:959 (1991)). Increasing concentrations of the antagonists were placed in the astrocyte cultures 5 minutes prior to the addition of VIP. Astrocytes were maintained in 35 mm tissue culture dishes with 0.3 mg protein per dish. Each value is the mean of 8-10 determinations from 4 experiments. […] The error bar is the SEM.
In view of the foregoing, astroglia cells were utilized to compare the effects the VIP antagonists of the present invention have on VIP-stimulated cAMP formation. For cAMP determinations, the general protocols involve either the measurement of adenylate cyclase activity or, the use of radioimmunoassays for cAMP which utilize a cAMP determination kit from NEN (New England Nuclear, Boston, Mass.)36 previously described by Gozes, et al. (J. Pharmacol. Exp. Therap., 257:959 (1991)). An HCl (0.05M) extract neutralizecl with 0.5M NaOH may be utilized for the tests.
Rat astrocytes were maintained in cell culture as described above. The accumulation of cAMP was measured by radio-immunoassay (NEN kit, New England Nuclear) from cold trichloro acetic acid extracts (Evans et al., supra, 1984). […]

[3] = test system: Sprague-Dawley rat pups, locomotive activity rhythm; test: Circadian motor activity rhythms after chronic injection; type: in vivo; conditions: 5 μg/day subcutaneous, 28 days, newborn rat pups
Description: FIGS. 4(A-J). VIP antagonism disturbed the biological clock via a cAMP-mediated mechanism. Newborn rat pups (Sprague-Dawley, locally bread, Yoxheam, Israel) were chronically injected with VIP analogues (5 μg of each analogue/50 μl/day, subcutaneous), for 28 consecutive days. The vehicle of injection was either 0.01M acetic acid or 15% dimethylsulfoxide (for the lipophilic peptides). On day 21, the animals were placed each one in a separate cage and their locomotive activity was continuously measured. The pattern of locomotive activity was measured using an animal monitoring system with an infrared detector for 7 days (A, C, E, G, I). The spectral periods of rhythm in the activity data was detected by a special statistical method because of the short computer sampling period. […]
Animals were each placed in a separate cage and motor activity was continuously recorded for 6-9 days, using an animal monitoring system with an infrared detector. Spectral analysis of motor activity rhythms is then determined by the fitting of different cosine curves to the activity data (see, Mattes, et al., Chronobiology Int'l, 8:460 (1991)).

NCI-H1299 = conditions: for NSCLC colony formation (colonies): NCI-H1299, 1 μM addition, control 29 ± 3.1
NCI-H727 = conditions: for NSCLC colony formation (colonies): NCI-H727, 1 μM addition, control 35.2 ± 2.3
NCI-H226 = conditions: for NSCLC colony formation (colonies): NCI-H226, 1 μM addition, control 43.1 ± 5.7
[4] = test system: cAMP (low affinity) VIP receptor on astroglia cells; test: Displacement of 125I-VIP from astroglia cells; conditions: central nervous system, FIGS. 2 and 3
[5] = test system: non-small cell lung cancer (NSCLC) cell lines; test: NSCLC colony formation / cell growth, statements across cell lines
[6] = test system: c-fos mRNA in NCIH810 cells; test: c-fos mRNA assay; type: cell-based
Description: In addition, the ability of VIP and the S-hybrid VIP antagonist to stimulate c-fos mRNA was examined; c-fos mRNA is a marker for cancer cell proliferation. […] This is true regardless of whether the VIP antagonist is co-administered with VIP or added by itself (See, Table IV, infra).
^a NCIH810 cells were treated with the peptide and the cfos mRNA
determined after 1 hour.
For the c-fos experiments, SCLC cells were cultured with SIT medium containing 0.5% fetal bovine serum. After 4 hours, the cells were treated with stimuli such as 10 nM BN for 60 min. Total RNA was isolated using the guanidinium isothiocyanate (GIT) method. Ten μg of denatured RNA was separated in a 0.66M formaldehyde 1% agarose gel as previously described. The gel was treated with ethidium bromide tp assess RNA integrity. The RNA was blotted onto a nitrocellulose membrane overnight and the membrane hybridized with a c-fos probe labelled with ^32 P-dCTP using a Bethesda Research Laboratories random priming kit. The membrane was exposed to Kodax XAR-2 film at […] for 1 day and the autoradiogram developed. The autoradiogram were analyzed using a Molecular Dynamics densitometer.

[7] = test system: neuroblastoma (NMB) cells; test: Neuroblastoma (NMB) cell division by cell counts; type: cell-based, human
Description: FIG. 5. […] Neuroblastoma (NMB) cells have been grown in culture using RPMI-1640 medium supplemented with 10% fetal calf serum and gentamicin (100 μl of 40 mg/ml stock solution per 100 mL medium) in a humidified atmosphere of 5% CO2, 95% air. Cells were harvested with Puck's saline containing 0.25% trypsin and 0.02M EDTA every four days, centrifuged and seeded in 60 mm diameter tissue culture dishes (CORNING) at a density of 0.6-0.7×10^6 cells per dish.
For mitogenic assays, human NM cells were seeded in 35 mm diameter tissue culture dishes (CORNING) at a density of 0.2×10^6 cells per dish in RPMI-1640 medium plus 10% fetal calf serum. […] Cell counts were performed with a hemocytometer, using trypan blue staining for viability, on the second day (24 hours) after the VIP treatment. Results shown on the graph are cell/dish×1000. Error bars represent the standard error. Three-six replicates were counted for each data point and experiments were repeated three independent times.

[8] = test system: neuroblastoma (NMB) cells; test: Thymidine incorporation into neuroblastoma (NMB) cells; type: cell-based, human; conditions: 24 hours incubation, one day after seeding; read-out: EC50, stimulation of thymidine incorporation into NMB cells
[9] = test system: VIP receptors on neuroblastoma (NMB) cells; test: VIP binding and displacement on intact neuroblastoma (NMB) cells; design: species or system human
Description: Alternatively, the VIP was iodinated according to the procedure described by Werner, et al. (Biochem. Biophys. Res. Commun., 133:228-232 (1985)). […] Experiments were repeated at least three times, each containing triplicates, error bars represent the standard error. Cells were grown for 24 hours (circles) and 48 hours (triangles). […] The binding parameters were determined by ACCUFIT program, Lundon-2 competition analysis (LUNDON software Inc., Chargin Falls, Ohio, U.S.A.). […] The calculated Bmax was 6×10^-14 moles/mg and 1.5×10^-14 moles/mg for cells grown for 24 hours as compared to cells grown for 48 hours, respectively.

Structure (SMILES): CCCC[C@H](NC(=O)[C@H](CCC(N)=O)NC(=O)[C@H](CCCCN)NC(=O)[C@H](CCCNC(=N)N)NC(=O)[C@H](CC(C)C)NC(=O)[C@H](CCCNC(=N)N)NC(=O)[C@@H](NC(=O)[C@H](Cc1ccc(O)cc1)NC(=O)[C@H](CC(N)=O)NC(=O)[C@H](CC(=O)O)NC(=O)[C@@H](NC(=O)[C@H](Cc1ccc(O)cc1)NC(=O)[C@@H]1CCCN1C(=O)[C@H](CCCNC(=N)N)NC(=O)[C@H](CCCNC(=N)N)NC(=O)[C@@H]1CCCN1C(=O)[C@@H](N)CCCCN)[C@@H](C)O)[C@@H](C)O)C(=O)N[C@@H](C)C(=O)N[C@H](C(=O)N[C@@H](CCCCN)C(=O)N[C@@H](CCCCN)C(=O)N[C@@H](Cc1ccc(O)cc1)C(=O)N[C@@H](CC(C)C)C(=O)N[C@@H](CC(N)=O)C(=O)N[C@@H](CO)C(=O)N[C@H](C(=O)N[C@@H](CC(C)C)C(=O)N[C@@H](CC(N)=O)C(N)=O)[C@@H](C)CC)C(C)C [NL-hybrid VIP antagonist] (H-KPRRPYTDNYTRLRKQ[Nle]AVKKYLNSILN-NH2)
- fold more potent than the hybrid VIP antagonist at inducing neuronal cell death [1]: 10 fold
- affinity for the VIP-neuronal survival associated receptor (in words) ([1]; central nervous system, FIG. 1): has an affinity for both
- concentration of maximal effect on neuronal cell death ([1]; spinal cord cultures, FIG. 1): 10^-10 M
- inhibition of VIP-induced cAMP formation (in words) [2]: effectively inhibits VIP-induced cAMP formation
- effect on 24 hours periodicity of activity rhythm [3]: abolished this 24 hours periodicity
- overall activity of the animals [3]: overall increase in the activity
- inhibition of cell growth (NCI-H1299): 100%
- NSCLC colony formation (colonies) (NCI-H1299): 0
- inhibition of cell growth (NCI-H727): 88%
- NSCLC colony formation (colonies) (NCI-H727): 4.2 ± 3.1
- inhibition of cell growth (NCI-H226): 92%
- NSCLC colony formation (colonies) (NCI-H226): 3.5 ± 2.5
- affinity for the cAMP (low affinity) VIP receptor (in words) [4]: has an affinity for both
- potency relative to the hybrid antagonist in inhibiting tumor cell growth ([5]; two out of three NSCLC cell lines): ten-fold more potent

Structure (SMILES): CC[C@H](C)[C@H](NC(=O)[C@H](CO)NC(=O)[C@H](CC(N)=O)NC(=O)[C@H](CC(C)C)NC(=O)[C@H](Cc1ccc(O)cc1)NC(=O)[C@H](CCCCN)NC(=O)[C@H](CCCCN)NC(=O)[C@@H](NC(=O)[C@H](C)NC(=O)[C@H](CCSC)NC(=O)[C@H](CCC(N)=O)NC(=O)[C@H](CCCCN)NC(=O)[C@H](CCCNC(=N)N)NC(=O)[C@H](CC(C)C)NC(=O)[C@H](CCCNC(=N)N)NC(=O)[C@@H](NC(=O)[C@H](Cc1ccc(O)cc1)NC(=O)[C@H](CC(N)=O)NC(=O)[C@H](CC(=O)O)NC(=O)[C@@H](NC(=O)[C@H](Cc1ccccc1)NC(=O)[C@@H](NC(=O)[C@H](C)NC(=O)[C@H](CC(=O)O)NC(=O)[C@H](CO)NC(=O)[C@@H](N)Cc1c[nH]cn1)C(C)C)[C@@H](C)O)[C@@H](C)O)C(C)C)C(=O)N[C@@H](CC(C)C)C(=O)N[C@@H](CC(N)=O)C(N)=O [VIP, Vasoactive intestinal polypeptide]
- c-fos mRNA ([6]; 10 nM, NCIH810 cells, after 1 hour, NONE = 1.0): 5.6
- effect on c-fos mRNA (in words) ([6]; antagonist co-administered with VIP or added by itself): stimulates c-los mRNA
- EC50 ([7]; 24 hour VIP treatment, added one day after seeding, read-out: EC50, stimulation of NMB cell division by cell counts): 500 nM
- mitosis when added 48 hours after plating ([7]; additional 24 hours incubation): did not stimulate mitosis
- concentration at peak of mitogenic activity ([7]; cell counts and thymidine incorporation, decreased thereafter): 1 µM
- EC50 [8]: 500 nM
- fold higher affinity in younger cells (24 hrs) compared with older cells (48 hrs) [9]: about 10 fold
- NSCLC colony formation (colonies) (NCI-H1299): 55.8 ± 19.8
- NSCLC colony formation (colonies) (NCI-H727): 115 ± 22.7
- NSCLC colony formation (colonies) (NCI-H226): 87.4 ± 4.8
- stimulation of NSCLC colony formation in agar ([5]; index of cell growth): 2-3 fold
